According to patent US11312727B1, “Macrocyclic flu endonuclease inhibitors” (Janssen BioPharma, Inc., priority 2018, dated 2022):

Columns and labels:
in vitro = conditions: human, CC50, uninfected A549 cells, CellTiter-Glo
[1] = system: Influenza strain A549 A/WSN/33 (H1N1); assay: microbe, parasite or virus in culture; format: cell-based; conditions: Influenza A virus, A549, 20 h, A549 cells, influenza A/WSN/33 (H1N1), 20 hours incubation; read-out: A549_A(H1N1) EC50

SMILES | CC50 (in vitro) | EC50 [1]
O=C1c2c(O)c(=O)ccn2N2CN1C/C=C\COc1cc(F)c(F)c3c1[C@@H]2c1ccccc1SC3 (single isomer, unassigned) [Compound 140C, (21a*R,*Z)-24,25-difluoro-16-hydroxy-6,10,13,21a-tetrahydro-7,8-(epiprop[1]en[1]yl[3]ylidene)-14,21-methanobenzo[6,7]thiepino[4,5-c]pyrido[1,2-f][1]oxa[5,6,9]triazacyclotridecine-15,17-dione] | > 10000 nM | 37.4 nM
O=C1c2c(O)c(=O)ccn2N2CN1C/C=C\CCc1ccncc1[C@H]2c1ccccc1 (single isomer, unassigned) [Compound 35A, (18*R,*Z)-12-hydroxy-18-phenyl-5,6,9,18-tetrahydro-10,17-methanodipyrido[1,2-b:4′,3′-k][1,2,5]triazacyclotridecine-11,13-dione] | > 2000 nM | 69 nM
CC(C)[C@H]1/C=C/COc2c(ccc(F)c2F)[C@@H](c2ccccc2)N2CN1C(=O)c1c(O)c(=O)ccn12 (single isomer, unassigned) [Compound 128AB, (9*S,18*R,*E)-3,4-difluoro-12-hydroxy-9-isopropyl-18-phenyl-6,9-dihydro-18H-10,17-methanobenzo[b]pyrido[1,2-f][1]oxa[5,6,9]triazacyclotridecine-11,13-dione] | > 200 nM | 65 nM
CC(C)c1ccccc1[C@@H]1c2ccc(F)c(F)c2OC/C=C\CN2CN1n1ccc(=O)c(O)c1C2=O (single isomer, unassigned) [Compound 158B, (18*R,*Z)-3,4-difluoro-12-hydroxy-18-(2-isopropylphenyl)-6,9-dihydro-18H-10,17-methanobenzo[b]pyrido[1,2-f][1]oxa[5,6,9]triazacyclotridecine-11,13-dione] | > 100 nM | > 50 nM
O=C1c2c(O)c(=O)ccn2N2CN1C/C=C\COc1ccccc1[C@H]2c1ccc(F)c(F)c1 (single isomer, unassigned) [Compound 45A, (18*R,Z)-18-(3,4-difluorophenyl)-12-hydroxy-6,9-dihydro-18H-10,17-methanobenzo[b]pyrido[1,2-f][1]oxa[5,6,9]triazacyclotridecine-11,13-dione] | > 2000 nM | > 1000 nM
Cc1ccc2c(c1F)OC/C=C\CN1CN([C@H]2c2ccccc2)n2ccc(=O)c(O)c2C1=O (single isomer, unassigned) [Compound 135B, (18*S,Z)-4-fluoro-12-hydroxy-3-methyl-18-phenyl-6,9-dihydro-18H-10,17-methanobenzo[b]pyrido[1,2-f][1]oxa[5,6,9]triazacyclotridecine-11,13-dione] | > 200 nM | > 100 nM
O=C1c2c(O)c(=O)ccn2N2CN1C[C@@H]1C[C@H]1COc1ccccc1[C@H]2c1ccccc1 (single isomer, unassigned) [Compound 80BB, (1a*R,8*R,17a*R)-14-hydroxy-8-phenyl-1a,2,17,17a-tetrahydro-1H,8H-9,16-methanobenzo[b]cyclopropa[k]pyrido[1,2-f][1]oxa[5,6,9]triazacyclotridecine-13,15-dione] | > 1000 nM | > 500 nM
CC(C)[C@H]1/C=C/COc2c(F)cccc2[C@@H](c2ccccc2)N2CN1C(=O)c1c(O)c(=O)ccn12 (single isomer, unassigned) [Compound 124AA, (9*S,18*R,*E)-4-fluoro-12-hydroxy-9-isopropyl-18-phenyl-6,9-dihydro-18H-10,17-methanobenzo[b]pyrido[1,2-f][1]oxa[5,6,9]triazacyclotridecine-11,13-dione] | > 200 nM | > 100 nM
O=C1c2c(O)c(=O)ccn2N2CN1CCOCCOc1ccccc1[C@H]2c1ccccc1 (single isomer, unassigned) [Compound 99A, (2*R)-18-hydroxy-2-phenyl-9,12-dioxa-1,15,22-triazatetracyclo[13.7.1.03,8.017,22]tricosa-3,5,7,17,20-pentaene-16,19-dione] | > 1000 nM | > 500 nM
O=C1c2c(O)c(=O)ccn2N2CN1C/C=C\COc1cc(C(F)F)ccc1[C@H]2c1ccccc1 (single isomer, unassigned) [Compound 94B, (18*R,Z)-3-(difluoromethyl)-12-hydroxy-18-phenyl-6,9-dihydro-18H-10,17-methanobenzo[b]pyrido[1,2-f][1]oxa[5,6,9]triazacyclotridecine-11,13-dione] | > 1000 nM | > 500 nM
O=C1c2c(O)c(=O)ccn2N2CN1C/C=C/CCc1cc(F)ccc1[C@H]2c1ccccn1 (single isomer, unassigned) [Compound 57B, (16*S,E)-13-fluoro-4-hydroxy-16-(pyridin-2-yl)-7,10,11,16-tetrahydro-6,17-methanobenzo[k]pyrido[1,2-b][1,2,5]triazacyclotridecine-3,5-dione] | > 2000 nM | > 1000 nM
O=C1c2c(O)c(=O)ccn2N2CN1C/C=C\COc1ccc(Cl)cc1[C@H]2c1ccccc1 (single isomer, unassigned) [Compound 51A] | > 2000 nM | > 1000 nM
CC[C@H]1/C=C\COc2cccc3c2[C@H](c2ccccc2SC3)N2CN1C(=O)c1c(O)c(=O)ccn12 [Compound 92AA, (13S,21aR,Z)-13-ethyl-16-hydroxy-6,10,13,21a-tetrahydro-7,8-(epiprop[1]en[1]yl[3]ylidene)-14,21-methanobenzo[6,7]thiepino[4,5-c]pyrido[1,2-f][1]oxa[5,6,9]triazacyclotridecine-15,17-dione] | > 1000 nM | 108 nM
O=C1c2c(O)c(=O)ccn2N2CN1C/C=C/CCc1ccccc1[C@H]2c1ccccn1 [Compound 43A, (17S,E)-4-hydroxy-16-(pyridin-2-yl)-7,10,11,16-tetrahydro-6,17-methanobenzo[k]pyrido[1,2-b][1,2,5]triazacyclotridecine-3,5-dione] | > 2000 nM | 22 nM
O=C1c2c(O)c(=O)ccn2N2CN1C/C=C\COc1c(F)cccc1[C@H]2c1ccccc1 (single isomer, unassigned) [Compound 61A, (18*R,Z)-4-fluoro-12-hydroxy-18-phenyl-6,9-dihydro-18H-10,17-methanobenzo[b]pyrido[1,2-f][1]oxa[5,6,9]triazacyclotridecine-11,13-dione] | > 2000 nM | 5 nM
C[C@H]1N2C/C=C/COc3c(F)cccc3[C@H](c3ccccc3)N1n1ccc(=O)c(O)c1C2=O (single isomer, unassigned) [Compound 91B, (18*S,19*S,E)-4-fluoro-12-hydroxy-19-methyl-18-phenyl-6,9-dihydro-18H-10,17-methanobenzo[b]pyrido[1,2-f][1]oxa[5,6,9]triazacyclotridecine-11,13-dione] | > 1000 nM | > 500 nM
O=C1c2c(O)c(=O)ccn2N2CN1C/C=C\COc1ccccc1[C@@H]2c1ccccc1 [Compound 5B, (18S,Z)-12-hydroxy-18-phenyl-6,9-dihydro-18H-10,17-methanobenzo[b]pyrido[1,2-f][1]oxa[5,6,9]triazacyclotridecine-11,13-dione] | > 2000 nM | > 1000 nM
O=C1c2c(O)c(=O)ccn2N2CN1CCOC/C=C\c1cccc3c1[C@H]2c1ccccc1CC3 (single isomer, unassigned) [Compound 83A, (13Z,23b*R)-6-hydroxy-9,10,12,18,19,23b-hexahydro-1,8-methanobenzo[4,5]cyclohepta[1,2,3-qr]pyrido[1,2-c][9,2,3,6]benzoxatriazacyclotetradecine-5,7-dione] | > 1000 nM | > 500 nM
